Measured values reported in the NIST ThermoML archive (doi:10.1016/j.jct.2015.01.005).
± gives the expanded uncertainty stated by the source.

Assay: Molar enthalpy of transition or fusion
Details: DSC

SMILES: O[C@@H]1[C@@H](O)[C@@H]2OC[C@@H](O2)[C@H]1O [1,6-anhydro-β-D-glucopyranose]
- Molar enthalpy of transition or fusion (Crystal 1): 0.693 ± 0.0478 kcal/mol
- Molar enthalpy of transition or fusion (Crystal 2): 5.98 ± 0.167 kcal/mol
